According to patent US8597664B2, “Endogenous adjuvant molecules and uses thereof” (University of Massachusetts, priority 2003, dated 2013):

Columns and labels:
[1] = system: dendritic cells; assay: Expression of CD80 and CD86 on dendritic cells from TLR4+/+ or TLR4-/- mice; type: cell-based, C57BL/6 (TLR4+/+) or C.C3H lps-d (TLR4-/-) mice; settings: 6 hours
Method: (§1) Bone marrow was cultured for 7 days in media containing 10 u/ml of both GM-CSF and IL-4, as previously described.^24 Fresh media (50% volume) containing cytokines was added at the 4th day of culture. At day 7, floating cells were removed by aspiration after gentle rocking, and soluble or crystalline uric acid was added. Following a 6 hour incubation, the media was gently removed and replaced with PBS containing either 0.5% heparin (sigma) or 0.5 μM polyvinyl sulfate (100 KD, Sigma) in order to detach bound crystals. Following a 10 minute incubation, cells were gently removed by scraping, washed once in 50 ml of media and 3 times with 50 ml of PBS in order to dissolve any remaining crystals, and then stained and assayed by flow cytometry as previously described.^15 To quantify MSU crystal formation in culture, a parallel set of wells was prepared without dendritic cells, and the crystals harvested by centrifugation, washed with absolute alcohol and dissolved in 0.1N NaOH. The amount of uric acid in the solubilized precipitates was determined by measuring UV absorption at 292 nm against a set of standard uric acid/NaOH solutions.
As discussed in Example III, LPS has a stimulatory activity and is frequently a contaminant of reagents. Dendritic cells from the TLR4-null mice were examined to verify that LPS was not the source of the observed stimulatory activity.

[2] = system: CD8 T cell (CTL) responses to particulate HIV gp120 antigen; assay: CTL priming after co-injection of adjuvant with gp120/latex beads (51Cr-release CTL assay); type: in vivo, Balb/c mice
Method: Immunization of mice with antigen-polystyrene beads (2-10 μg) +/− cytosolic fractions and assays for the priming of CTL were performed as previously described ^16. Fractions from the GF-250 column were injected without further manipulation, while fractions from all other columns were dried and reconstituted to normal osmolarity before injection. Fractions from 1%-10% of liver cytosol were typically injected into mice. Pooled fractions without adjuvant activity were standardly used as negative controls. For in vitro stimulation, splenocytes from immunized mice were stimulated directly with 10^−8 M peptide (RGPGRAFVTL-SEQ ID NO: 1 or SIINFEKL-SEQ ID NO: 2) and were then assayed as previously described.^16
Each four consecutive fractions (4 minutes) were pooled and tested for their ability to augment the priming of CD8 T cell responses when co-injected with particulate HIV gp120 antigen. After 14 days, splenocytes were harvested from the primed animals and were stimulated ex vivo with either antigen-transfected or peptide-pulsed syngeneic cells. The re-stimulated cells were then assayed for their ability to kill antigen-bearing target cells in a standard ^51Cr-release as say.^16
To further evaluate this point, highly purified uric acid was tested for adjuvant activity. Highly purified uric acid (50 μg), highly purified LMW fraction from a C18 column, or PBS as control were mixed with 5 μg gp120/latex beads in 100 μl of saline and injected into two Balb/c mice. CTL from these mice were assayed for killing of 15.12 (gp120-transfected 3T3) cells (filled triangles), or vector-transfected control 3T3 cells (open squares). Results from individual mice are presented (FIG. 3A-C, wherein % Lysis indicates the degree of cell killing and the E:T ratio indicates the ratio of Effector cell:Target cell, e.g., the ratio of cytotoxic T-cell: antigen positive target cell).
To determine more precisely the amount of uric acid necessary to provide an adjuvant effect in vivo, the amount of uric acid injected into mice was titrated from 2.5-40 μg (in 100 μl; from a concentration of 25-400 μg/ml) and adjuvant activity assayed as described in Example II above. […] This amount of uric acid is produced by about 2×10^6 UV-treated 3T3 cells (See FIG. 3J).
To further evaluate the activity of xanthine crystals, xanthine crystals were tested for adjuvant activity in experiments carried out similarly to those described in Example II above. Highly purified uric acid (500 μg), highly purified xanthine (500 μg), or PBS as control were mixed with 2 μg gp120/latex beads in 100 μl of saline and injected into two Balb/c mice. CTL from these mice were assayed for killing of 15.12 (gp120-transfected 3T3) cells (filled squares). Results from individual mice are presented (FIG. 6A-C), wherein % Lysis indicates the degree of cell killing and the E:T ratio indicates the ratio of Effector cell:Target cell, e.g., the ratio of cytotoxic T-cell:antigen presenting cell.

[3] = system: EL4 cells; assay: Uric acid measurement in the cytosol of treated cells; type: cell-based; settings: 25 μg/ml cycloheximide or 8 μM emetine, after 5 hours; untreated cells below limit of detection
Method: EL4 cells (10^8) were resuspended in 5 ml of culture media and incubated at 37° C. for 5 hours after being treated for one hour with emetine^16 or cycloheximide or heat shocked for 20 minutes at 45° C. (see FIG. 3J). 3T3 cells grown in 15 cm dishes were either untreated or exposed to UV light for 5 minutes and incubated in 5 hours. The cells were suspended without washing and disrupted by nitrogen cavitation followed by centrifugation, as described.^16 The resulting supernatants were diluted with 0.1 M borate, and analyzed for uric acid content using a uric acid detection kit (Molecular Probes).
EL4 cells were either heat shocked for 20 minutes at 45° C., incubated with 25 μg/ml cycloheximide, incubated with 8 μM emetine or untreated as control. 3T3 cells were either UV-irradiated or untreated as control. These treatments were previously shown by the instant inventors to increase adjuvant activity. The amount of uric acid in the cytosol of the treated cells was determined after 5 hours of incubation. […] An approximately 4-fold increase in uric acid was also observed when 3T3 cells were treated with UV (FIG. 3J).

[4] = system: bone marrow-derived dendritic cells (CD11c+); assay: Expression of CD80 and CD86 on bone marrow-derived dendritic cells by flow cytometry; type: cell-based, Balb/c mice
Method: as §1
Accordingly, the effect of uric acid on expression of costimulators on cultured dendritic cells was tested. Uric acid was added to cultures of primary bone-marrow derived dendritic cells. Specifically, bone marrow-derived dendritic cells from Balb/c mice in 6 well plates were untreated (thin continuous line) or incubated with 20 μl of pre-formed MSU crystals (about 1.2 mg/ml final concentration) for 6 hours (heavy dashed lines) or 24 hours (heavy continuous lines). The expression of CD80 and CD86 on CD11c+ cells was then analyzed by flow cytometry.
Based upon the results set forth in Examples I-VI which identify MSU crystals as having adjuvant activity, it was concluded that other crystals with similar properties should display djuvant activity. […] The expression of CD86 on CD11c+ cells was then analyzed by flow cytometry.

[5] = Precipitation of uric acid to MSU crystals; type: physicochemical; settings: uric acid 70 μg/ml
Method: as §1
As discussed in Example III, LPS has a stimulatory activity and is frequently a contaminant of reagents. Dendritic cells from the TLR4-null mice were examined to verify that LPS was not the source of the observed stimulatory activity. […]

[6] = reported (ref. 18); cited from earlier work
[7] = system: CD8 T cell (CTL) responses to particulate HIV gp120 antigen; assay: CTL priming after co-injection with antigen in LPS-nonresponsive TLR4 null mice; type: in vivo, C.C3H lps-d (TLR4-/-) mice; settings: injected together with antigen
Method: Lipopolysaccharide (LPS) has potent immunostimulatory activity and is a frequent contaminant of buffers and other reagents. Although every attempt was made to avoid contamination of preparations with endotoxin, it was important to exclude the possibility that LPS was present in the LMW fraction and responsible for the adjuvant activity. Accordingly, similar experiments to those of Example II were carried out except that purified LMW fraction or commercially-obtained highly purified uric acid was injected together with antigen into toll-like receptor 4 (TLR4) null mice, which are nonresponsive to LPS. Specifically, congenic C.C3H lps-d (TLR4−/−) mice were used in place of Balb/c (TLR4+/+) mice.

[8] = Toxicity observed in the Examples; type: in vivo; settings: as used in the Examples
Excerpt: With respect to potential toxicity of the crystalline adjuvant, local reaction to injections or other morbidity of animals immunized with any adjuvant within the scope of the invention, e.g., a crystalline adjuvant, can be readily determined. With respect to the crystalline adjuvants of the present invention displaying characteristics similar to uric acid or xanthine, significant toxicity is not expected. […] Uric acid and xanthine are normal components of mammals and local administration should be relatively safe. Uric acid is effective when injected subcutaneously, which is an effective and well tolerated immunization protocol. Uric acid and xanthine thus have favorable characteristics for an adjuvant, and crystalline molecules having similar characteristics, such as those described herein, are also expected to behave favorably as immune adjuvants.

In the case of `O=c1[nH]c(=O)c2[nH]c([O-])nc2[nH]1.[Na+]` [MSU crystals, monosodium urate], the “stimulatory effect on dendritic cells from TLR4-null mice” value ([1]; C.C3H lps-d (TLR4-/-) cells) is reported as “the stimulatory effect was also found”, the “stimulatory effect on dendritic cells (CD80, CD86) compared with LPS” value ([1]; MSU crystals about 1.2 mg/ml versus 1 μg/ml LPS) is reported as “stronger than that induced by high concentrations of LPS” and the “stimulation of dendritic cells in vitro, preformed crystals versus soluble uric acid” value ([1]; preformed MSU crystals about 1.2 mg/ml, soluble uric acid 70 μg/ml) is reported as “highly stimulatory”. For the same compound, the “activity of preformed crystals injected in vivo” value ([2]; preformed MSU crystals) was “active”.
For `CC[C@H]1CN2CCc3cc(OC)c(OC)cc3[C@@H]2C[C@@H]1C[C@H]1NCCc2cc(OC)c(OC)cc21` [emetine], the “uric acid in the cytosol of treated EL4 cells” value [3] was “increased dramatically”.
With `C[C@@H]1C[C@@H]([C@H](O)CC2CC(=O)NC(=O)C2)C(=O)[C@@H](C)C1` [cycloheximide] the “uric acid in the cytosol of treated EL4 cells” value [3] was “increased dramatically”.
With `O=c1[nH]c(=O)c2[nH]c(=O)[nH]c2[nH]1` [uric acid] the CTL priming ([2]; 50 μg uric acid mixed with 5 μg gp120/latex beads in 100 μl saline) was “enhanced CTL priming to a similar degree as the purified LMW fraction”, the adjuvant effect ([2]; 10-50 μg of uric acid in 100 μl) was “strong adjuvant effect” and the “amount of uric acid providing an adjuvant effect when injected in vivo” value ([2]; titrated from 2.5-40 μg in 100 μl) was “about 10 μg”. The “concentration of uric acid providing an adjuvant effect when injected in vivo” value ([2]; titrated from 25-400 μg/ml, 100 μl injected) was ~100 µg/mL, the “expression of CD86 on CD11c+ dendritic cells” value ([4]; 20 μl pre-formed MSU crystals (about 1.2 mg/ml final), 6 or 24 hours) was “markedly and rapidly” and the “correlation of dendritic cell activation (CD86) with crystal formation” value ([4]; uric acid titrated in culture, 24 hours) was “stimulated at precisely the concentrations of uric acid that led to crystal formation”. The “crystal precipitation in dendritic cell culture” value [5] was “crystals do not precipitate within 6 hours”, the “concentration at which uric acid precipitates in vivo” value [6] was > 70 µg/mL and the “adjuvant activity in LPS-nonresponsive mice” value [7] was “had adjuvant activity”. For the same compound, the toxicity [8] was “have not been observed”.
In the case of `O=c1[nH]c(=O)c2[nH]cnc2[nH]1` [xanthine], the CTL priming ([2]; 500 μg crystals mixed with 2 μg gp120/latex beads in 100 μl saline) is reported as “enhanced CTL priming to a similar degree as the MSU crystals”, the “expression of CD86 on CD11c+ dendritic cells” value ([4]; pre-formed crystals at 300 μg/ml final concentration, 6 hours) is reported as “increase their expression of CD86 markedly” and the toxicity [8] is reported as “have not been observed”.
